This passage reports IC50 and Ki results from ChEMBL document CHEMBL2331449, “Synthesis, biological evaluation and molecular modeling of aloe-emodin derivatives as new acetylcholinesterase inhibitors” (Bioorg Med Chem, 2013).

For orientation: IC50 means the concentration at which inhibition is half-maximal. High values mean weaker potency in that assay, low ones greater potency in that assay. One may read the Ki as a dissociation constant, usually derived from enzyme kinetics or from competition with a known ligand. A higher Ki goes with lower affinity.

In the first assay the target is T1, Acetylcholinesterase (Rattus norvegicus, UniProt P37136).
T1 sequence (P37136 whole entry): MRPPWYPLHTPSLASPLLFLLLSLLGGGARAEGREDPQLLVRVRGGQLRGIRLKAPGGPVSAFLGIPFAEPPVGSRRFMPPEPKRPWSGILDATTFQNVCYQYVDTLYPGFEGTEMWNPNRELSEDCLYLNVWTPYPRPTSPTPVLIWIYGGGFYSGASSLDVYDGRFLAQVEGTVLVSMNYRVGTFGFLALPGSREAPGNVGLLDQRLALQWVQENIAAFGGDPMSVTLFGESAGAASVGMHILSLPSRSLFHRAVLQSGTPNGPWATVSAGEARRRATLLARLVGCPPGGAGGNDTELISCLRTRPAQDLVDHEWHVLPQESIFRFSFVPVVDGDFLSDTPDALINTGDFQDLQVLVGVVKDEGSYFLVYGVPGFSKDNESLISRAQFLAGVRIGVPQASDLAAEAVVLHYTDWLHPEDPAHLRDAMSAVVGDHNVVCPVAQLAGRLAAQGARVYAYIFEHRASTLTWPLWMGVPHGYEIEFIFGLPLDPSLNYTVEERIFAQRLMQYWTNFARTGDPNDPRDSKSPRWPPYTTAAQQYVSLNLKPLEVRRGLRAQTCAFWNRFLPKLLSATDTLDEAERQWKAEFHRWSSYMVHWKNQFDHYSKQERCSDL
Description: Inhibition of AChE in rat cortex using acetylthiocholine iodide as substrate preincubated with enzyme for 10 mins prior to substrate addition by Ellman's colorimetric method
Take `O=C1c2cccc(O)c2C(=O)c2c(O)cc(C[n+]3ccccc3)cc21`: 90 nM corresponded to half-maximal inhibition (IC50).
Take `C[N+](C)(Cc1cc(O)c2c(c1)C(=O)c1cccc(O)c1C2=O)c1ccccc1`: the IC50 amounted to 25400 nM.
Still for that read-out and setting: for `C[N+](C)(C)Cc1cc(O)c2c(c1)C(=O)c1cccc(O)c1C2=O` the value was 3760 nM; for `COc1cccc2c1C(=O)c1c(OC)cc(C[N+](C)(C)C)cc1C2=O`, 540 nM; for `COc1cccc2c1C(=O)c1c(OC)cc(C[N+](C)(C)c3ccccc3)cc1C2=O`, 13600 nM.

The target in the next assay is T1, Acetylcholinesterase. Put plainly: Inhibition of AChE in rat cortex using acetylthiocholine iodide as substrate by double Lineweaver-Burk plot analysis.
Compound `O=C1c2cccc(O)c2C(=O)c2c(O)cc(C[n+]3ccccc3)cc21` returned a Ki of 279 nM.
